{"source": "paper PMC6271941", "about": "“Ruthenium^II(η^6-arene) Complexes of Thiourea Derivatives: Synthesis, Characterization and Urease Inhibition” (Molecules, 2014)"}
{"biological_target": "jack bean urease (Canavalia ensiformis, UniProt P07374)", "sequence (P07374 whole entry, looked up)": "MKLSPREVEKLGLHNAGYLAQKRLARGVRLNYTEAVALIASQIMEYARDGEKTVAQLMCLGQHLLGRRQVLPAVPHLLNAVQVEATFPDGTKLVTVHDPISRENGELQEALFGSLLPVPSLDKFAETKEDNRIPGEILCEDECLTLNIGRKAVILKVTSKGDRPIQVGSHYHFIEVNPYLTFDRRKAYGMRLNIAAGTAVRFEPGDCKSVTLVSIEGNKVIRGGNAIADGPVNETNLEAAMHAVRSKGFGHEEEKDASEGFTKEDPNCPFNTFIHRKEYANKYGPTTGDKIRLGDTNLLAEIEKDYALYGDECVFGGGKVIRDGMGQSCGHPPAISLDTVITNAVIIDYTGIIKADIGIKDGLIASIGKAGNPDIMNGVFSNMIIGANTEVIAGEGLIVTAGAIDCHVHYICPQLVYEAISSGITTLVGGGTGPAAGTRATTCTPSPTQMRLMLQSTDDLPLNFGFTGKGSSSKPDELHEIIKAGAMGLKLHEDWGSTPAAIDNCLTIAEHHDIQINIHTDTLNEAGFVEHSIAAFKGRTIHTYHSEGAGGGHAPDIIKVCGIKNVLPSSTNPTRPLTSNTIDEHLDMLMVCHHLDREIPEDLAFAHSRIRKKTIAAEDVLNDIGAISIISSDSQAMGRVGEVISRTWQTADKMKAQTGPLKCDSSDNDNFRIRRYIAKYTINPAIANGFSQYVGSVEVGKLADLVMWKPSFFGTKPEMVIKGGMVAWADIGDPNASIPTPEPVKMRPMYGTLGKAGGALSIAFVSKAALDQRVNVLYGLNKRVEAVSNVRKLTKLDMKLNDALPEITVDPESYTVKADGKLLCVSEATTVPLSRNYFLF", "assay": "biochemical", "format": "biochemical", "settings": "not given", "method": "(§1) The urease inhibitory activity was measured according to a reported method with slight modifications. The enzyme (5 U/mL; 10 μL) and test compound in buffer (10 μL) were sequentially added to 40 μL of buffer (pH 8.2) containing 100 mM urea, 1 mM EDTA, 0.01 M K2HPO4 and 0.01 M […]. The mixture was pre-incubated for 30 min at 37 °C. The reaction was initiated by the addition of 40 μL of phenol reagent (1%, w/v phenol, 0.005%, w/v sodium nitroprusside) and 40 μL of alkali reagent (0.5%, w/v NaOH, 0.1% active chloride NaOCl) to each well. After 10 min of incubation at 37 °C, the absorbance was measured at 630 nm using a Microplate reader (Bio-Tek ELx 800^TM, Instruments, Inc. USA). All the experiments were carried out with their respective controls in triplicate. Thiourea (0.1 mM well^−1) was used as a positive control.", "units": {"IC50": "µM"}}
{"molecule": "S=C1NCCN1", "note": "[I, imidazolidine-2-thione]", "IC50": "232 ± 27"}
{"molecule": "S=C1NCCCN1", "note": "[II, 1,3-diazinane-2-thione]", "IC50": "118 ± 13"}
{"biological_target": "jack bean urease (Canavalia ensiformis, UniProt P07374)", "assay": "biochemical", "format": "biochemical", "settings": "enzyme 5 U/mL, 100 mM urea, buffer pH 8.2, 30 min pre-incubation at 37 °C, absorbance at 630 nm, triplicate; read-out: Inhibitory activity IC50 against jack bean urease", "method": "as §1", "units": {"IC50": "µM"}}
{"molecule": "NC(N)=S", "note": "[Thiourea]", "IC50": "22.1 ± 1.4"}
{"molecule": "[Chlorido(η^6-p-cymene)(1,3-diazinane-2-thione)(triphenylphosphine)ruthenium(II)] hexafluoro-phosphate [Compound 12]", "IC50": "> 600"}
{"molecule": "[Chlorido(η^6-p-cymene)(1H-benzo[d]imidazole-2(3H)-thione)(triphenylphosphine)ruthenium(II)] hexafluorophosphate [Compound 13]", "IC50": "> 600"}
{"molecule": "[Chlorido(η^6-p-cymene)(imidazolidine-2-thione)(triphenylphosphine)ruthenium(II)] hexafluoro-phosphate [Compound 11]", "IC50": "> 600"}
{"molecule": "[Dichlorido(1,3-diazinane-2-thione)(η^6-p-cymene)ruthenium(II)] [Compound 7]", "IC50": "> 600"}
{"molecule": "[Dichlorido(1H-benzo[d]imidazole-2(3H)-thione)(η^6-p-cymene)ruthenium(II)] [Compound 8]", "IC50": "> 600"}
{"molecule": "[Dichlorido(imidazolidine-2-thione)(η^6-biphenyl)ruthenium(II)] [Compound 10]", "IC50": "> 600"}
{"molecule": "[Dichlorido(imidazolidine-2-thione)(η^6-toluene)ruthenium(II)] [Compound 9]", "IC50": "> 600"}
{"biological_target": "jack bean urease (Canavalia ensiformis, UniProt P07374)", "assay": "biochemical", "format": "biochemical", "settings": "jack bean urease; compared to thiourea as positive control", "method": "as §1"}
{"molecule": "S=C1NCCCN1", "note": "[II, 1,3-diazinane-2-thione]", "urease inhibitory activity (in words)": "most active in the tested series"}
{"biological_target": "jack bean urease (Canavalia ensiformis, UniProt P07374)", "assay": "biochemical", "format": "biochemical", "settings": "jack bean urease; thiourea vs II", "method": "as §1"}
{"molecule": "NC(N)=S", "note": "[Thiourea]", "fold more active than compound II (IC50 ratio)": "more than 5 times"}
